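Values below derive from 48-hour exposures of cells grown in 96-well plates, with endpoints linearly interpolated between the two concentrations bracketing the appropriate inhibition level. Here, GI50 denotes the concentration required for 50% inhibition of growth.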 Calls of active or inactive are those of the source. Cut-off read from the data, not from the text of the source: active = GI50 up to about 1.1 µM and inactive = higher.
What was measured:
Assay in all cases: NCI anticancer screen, dose series, 48 h
OVCAR-8 = test system: OVCAR-8
SK-MEL-2 = test system: SK-MEL-2
UO-31 = test system: UO-31
UACC-62 = test system: UACC-62
LOX IMVI = test system: LOX IMVI
786-0 = test system: 786-0
A549 = test system: A549
CAKI-1 = test system: CAKI-1
SK-MEL-28 = test system: SK-MEL-28
SR = test system: SR
M14 = test system: M14
SF-539 = test system: SF-539
Malme-3M = test system: Malme-3M
EKVX = test system: EKVX
HCT-116 = test system: HCT-116

Measured: GI50

O=C(Nc1cccs1)c1c(O)[nH]c(=S)[nH]c1=O
inactive: OVCAR-8 > 100 µM | SK-MEL-2 > 100 µM | UO-31 > 100 µM | UACC-62 > 100 µM | LOX IMVI > 100 µM | 786-0 > 100 µM | A549 > 100 µM | CAKI-1 > 100 µM | SK-MEL-28 > 100 µM | SR > 100 µM | M14 > 100 µM | SF-539 > 100 µM

CCCN(CCCC(NC(C)=O)C(=O)NCc1ccccc1)C(=O)NCCCl (stereo unspecified)
inactive: OVCAR-8 > 100 µM | SK-MEL-2 > 100 µM | UO-31 > 100 µM | UACC-62 > 100 µM | Malme-3M > 100 µM | 786-0 > 100 µM | A549 > 100 µM | EKVX > 100 µM | HCT-116 > 100 µM | CAKI-1 > 100 µM | SK-MEL-28 > 100 µM | SR > 100 µM | M14 > 100 µM | SF-539 > 100 µM

COC(=O)C1=CO[C@@H](OC2CC(CO)C(O)C(O)C2O)[C@@H]2[C@@H](C)[C@@H](OC(=O)/C=C/c3ccccc3)[C@@H](O)[C@H]12.COC(=O)C1=CO[C@@H](OC2CC(CO)C(O)C(O)C2O)[C@@H]2[C@@H](C)[C@@H](OC(=O)c3ccccc3)[C@@H](O)[C@H]12 (stereo partly specified)
inactive: OVCAR-8 > 100 µM | UO-31 > 100 µM | UACC-62 > 100 µM | Malme-3M > 100 µM | LOX IMVI > 100 µM | 786-0 > 100 µM | A549 > 100 µM | EKVX > 100 µM | HCT-116 > 100 µM | CAKI-1 > 100 µM | SK-MEL-28 > 100 µM | SR 66.7 µM | M14 > 100 µM | SF-539 > 100 µM

CC(=O)NNc1nc(C)c(C(=O)NNC(=O)C(=O)Nc2c(C)cccc2C(C)C)s1
inactive: OVCAR-8 94.2 µM | SK-MEL-2 > 100 µM | UO-31 > 100 µM | UACC-62 59.7 µM | Malme-3M 59.3 µM | LOX IMVI 55.5 µM | 786-0 > 100 µM | A549 61 µM | EKVX > 100 µM | HCT-116 84.1 µM | SK-MEL-28 > 100 µM | SR 40 µM | M14 > 100 µM | SF-539 95.9 µM

NC(=O)N/N=C/C(/C=N/NC(N)=O)[N+](=O)[O-]
inactive: SK-MEL-2 > 100 µM | UACC-62 > 100 µM | Malme-3M > 100 µM | LOX IMVI > 100 µM | 786-0 > 100 µM | A549 > 100 µM | EKVX > 100 µM | HCT-116 > 100 µM | CAKI-1 > 100 µM | SK-MEL-28 > 100 µM | M14 > 100 µM | SF-539 > 100 µM

O=C1/C(=C/c2cccc([N+](=O)[O-])c2)COc2ccc(Br)cc21
inactive: OVCAR-8 > 100 µM | SK-MEL-2 > 100 µM | UO-31 95.5 µM | Malme-3M > 100 µM | LOX IMVI 37.2 µM | 786-0 90.2 µM | A549 > 100 µM | EKVX > 100 µM | HCT-116 32.6 µM | SK-MEL-28 > 100 µM | SF-539 > 100 µM

Cc1ccc(C(=O)C(C)N)cc1C (stereo unspecified)
inactive: OVCAR-8 > 100 µM | SK-MEL-2 > 100 µM | UO-31 > 100 µM | UACC-62 > 100 µM | Malme-3M > 100 µM | LOX IMVI > 100 µM | 786-0 > 100 µM | A549 > 100 µM | EKVX > 100 µM | HCT-116 > 100 µM | CAKI-1 > 100 µM | SK-MEL-28 > 100 µM | M14 > 100 µM | SF-539 > 100 µM

CC(=O)OC1CC2C(C)(C)C(=O)C=C[C@]2(C)C2CCC3(C)C(=CC(=O)C3c3ccoc3)[C@]12C (stereo partly specified)
inactive: OVCAR-8 16.7 µM | SK-MEL-2 17.9 µM | UO-31 18.9 µM | UACC-62 13 µM | Malme-3M 17.5 µM | LOX IMVI 14.8 µM | 786-0 15.5 µM | A549 15.1 µM | EKVX 15.7 µM | HCT-116 11.6 µM | CAKI-1 24.7 µM | SK-MEL-28 15.9 µM | M14 21 µM | SF-539 16.9 µM

COc1ccccc1NC(=O)C1=C(C)NC(C)=C(C(=O)Nc2ccccc2OC)C1c1ccc(N(C)C)cc1
inactive: OVCAR-8 24 µM | SK-MEL-2 19.7 µM | UO-31 36 µM | Malme-3M 36.1 µM | LOX IMVI 15.4 µM | 786-0 33.8 µM | A549 42.6 µM | EKVX 27.4 µM | HCT-116 25.4 µM | CAKI-1 23.2 µM | SK-MEL-28 22.6 µM | M14 22.5 µM | SF-539 37.5 µM

Cc1ccccc1/N=N/C(C(=O)c1ccccc1)C(=O)c1ccccc1
inactive: OVCAR-8 31.8 µM | SK-MEL-2 19.7 µM | UO-31 17.2 µM | UACC-62 20.9 µM | Malme-3M 31.7 µM | 786-0 25.4 µM | A549 24.9 µM | EKVX 25.2 µM | HCT-116 16.1 µM | CAKI-1 34.1 µM | SK-MEL-28 24 µM | M14 18.1 µM | SF-539 23.8 µM

CC1(c2ccc[n+](Cc3ccccc3)c2)OCCO1
inactive: OVCAR-8 > 100 µM | SK-MEL-2 > 100 µM | UO-31 > 100 µM | UACC-62 > 100 µM | Malme-3M > 100 µM | LOX IMVI > 100 µM | 786-0 > 100 µM | A549 > 100 µM | EKVX > 100 µM | HCT-116 > 100 µM | CAKI-1 > 100 µM | SR > 100 µM | M14 > 100 µM | SF-539 > 100 µM

CCOC(=O)Oc1ccc2[nH]c3c(C)cc(N)c(C)c3c2c1
inactive: OVCAR-8 > 100 µM | SK-MEL-2 > 100 µM | UO-31 > 100 µM | Malme-3M 87.7 µM | LOX IMVI > 100 µM | 786-0 > 100 µM | A549 > 100 µM | EKVX > 100 µM | HCT-116 > 100 µM | CAKI-1 > 100 µM | SK-MEL-28 > 100 µM | SR > 100 µM | M14 98.4 µM | SF-539 > 100 µM

O=C(NC(=O)c1cn(CCN2CCNCC2)c(=O)[nH]c1=O)OCc1ccccc1
inactive: OVCAR-8 > 100 µM | UACC-62 > 100 µM | Malme-3M > 100 µM | LOX IMVI > 100 µM | A549 > 100 µM | EKVX > 100 µM | HCT-116 > 100 µM | CAKI-1 > 100 µM | SR > 100 µM | M14 > 100 µM | SF-539 > 100 µM

COC(=O)C(=Cc1cc(OC)c(OC)c(OC)c1-c1cc2c(cc1C(C)=O)OCO2)C(=O)OC
inactive: OVCAR-8 59 µM | SK-MEL-2 32.4 µM | UACC-62 32.6 µM | Malme-3M 38.7 µM | LOX IMVI 30.8 µM | 786-0 33.1 µM | A549 55.6 µM | EKVX 72.8 µM | HCT-116 32.2 µM | CAKI-1 54.3 µM | SK-MEL-28 33.1 µM | SR 50.4 µM | SF-539 43.8 µM

CCOc1ccc(/N=N/c2ccc3oc(=O)c(/C(C)=N\NC(=O)CC(=O)Nc4ccc(Cl)cc4)cc3c2)cc1
inactive: OVCAR-8 16.1 µM | SK-MEL-2 3.43 µM | UO-31 12.2 µM | UACC-62 10.1 µM | Malme-3M 16 µM | LOX IMVI 13.2 µM | A549 20.7 µM | EKVX 8.36 µM | HCT-116 16.4 µM | CAKI-1 > 100 µM | SK-MEL-28 36.1 µM | SR 3.47 µM | SF-539 17.5 µM
